# Tested on: MV-4-11 cells
# Assay: Gene expression microarray analysis (Affymetrix PrimeView) and GSEA
# Type: cell-based, human
# Parameters: RFU PODN (11730768_x_at) / Fold change /veh PODN (11730768_x_at) / RFU LINC00158 (11744669_a_at) / Fold change /veh LINC00158 (11744669_a_at) / RFU DUSP10 (11751237_a_at) / Fold change /veh DUSP10 (11751237_a_at) / RFU ID3 (11757404_x_at) / Fold change /veh ID3 (11757404_x_at) / RFU PLEKHG5 (11737974_s_at) / Fold change /veh PLEKHG5 (11737974_s_at) / RFU LRRC4B (11730491_at) / Fold change /veh LRRC4B (11730491_at) / RFU GIMAP4 (11747438_a_at) / Fold change /veh GIMAP4 (11747438_a_at) / RFU KRT8 (11758183_x_at) / Fold change /veh KRT8 (11758183_x_at) / RFU CNN1 (11734310_a_at) / Fold change /veh CNN1 (11734310_a_at) / RFU VPS37D (11726825_at) / Fold change /veh VPS37D (11726825_at) / RFU C10orf10 (11716522_x_at) / Fold change /veh C10orf10 (11716522_x_at) / RFU KIR2DL2 /// KIR2DL4 /// KIR2DL5A /// KIR2DL5B /// KIR2DS1 /// KIR2DS2 /// KIR2DS3 /// KIR2DS4 /// KIR3DL3 /// KIR3DL3 /// KIR3DS1 (11738374_at) / Fold change /veh KIR2DL2 /// KIR2DL4 /// KIR2DL5A /// KIR2DL5B /// KIR2DS1 /// KIR2DS2 /// KIR2DS3 /// KIR2DS4 /// KIR3DL3 /// KIR3DL3 /// KIR3DS1 (11738374_at) / RFU C1QL1 (11718748_at) / Fold change /veh C1QL1 (11718748_at) / RFU TMPRSS4 (11747572_a_at) / Fold change /veh TMPRSS4 (11747572_a_at) / RFU HAMP (11756126_x_at) / Fold change /veh HAMP (11756126_x_at) / RFU RNFT2 (11725882_a_at) / Fold change /veh RNFT2 (11725882_a_at) / RFU NR4A2 (11747474_a_at) / Fold change /veh NR4A2 (11747474_a_at) / RFU ABCC12 (11746883_a_at) / Fold change /veh ABCC12 (11746883_a_at) / RFU TMEM136 (11760407_x_at) / Fold change /veh TMEM136 (11760407_x_at) / RFU CLDN22 /// WWC2 (11732394_at) / Fold change /veh CLDN22 /// WWC2 (11732394_at) / RFU HLA-DPB1 (11760878_x_at) / Fold change /veh HLA-DPB1 (11760878_x_at) / RFU SPINT1 (11716480_a_at) / Fold change /veh SPINT1 (11716480_a_at) / RFU GAP43 (11754022_s_at) / Fold change /veh GAP43 (11754022_s_at) / RFU A4GNT (11735810_at) / Fold change /veh A4GNT (11735810_at) / RFU PRB3 (11715151_x_at) / Fold change /veh PRB3 (11715151_x_at) / RFU TUBB4B (11761932_at) / Fold change /veh TUBB4B (11761932_at) / RFU CAPN14 (11732068_a_at) / Fold change /veh CAPN14 (11732068_a_at) / RFU TMCC2 (11721928_a_at) / Fold change /veh TMCC2 (11721928_a_at) / RFU IRGQ (11745062_a_at) / Fold change /veh IRGQ (11745062_a_at) / RFU FAM174B (11720279_a_at) / Fold change /veh FAM174B (11720279_a_at) / RFU TMPRSS4 (11748680_a_at) / Fold change /veh TMPRSS4 (11748680_a_at) / RFU FAM212B (11763350_a_at) / Fold change /veh FAM212B (11763350_a_at) / RFU PLEKHG5 (11743358_a_at) / Fold change /veh PLEKHG5 (11743358_a_at) / RFU ZSCAN30 (11745921_a_at) / Fold change /veh ZSCAN30 (11745921_a_at) / RFU CMKLR1 (11741424_a_at) / Fold change /veh CMKLR1 (11741424_a_at) / RFU LOC101060620 /// MAPK8IP1 (11723275_at) / Fold change /veh LOC101060620 /// MAPK8IP1 (11723275_at) / RFU SPTSSB (11747773_x_at) / Fold change /veh SPTSSB (11747773_x_at) / RFU PRSS12 (11739890_at) / Fold change /veh PRSS12 (11739890_at) / RFU BIN1 (11741810_x_at) / Fold change /veh BIN1 (11741810_x_at) / RFU WNT11 (11732464_a_at) / Fold change /veh WNT11 (11732464_a_at) / RFU C10orf10 (11716521_a_at) / Fold change /veh C10orf10 (11716521_a_at) / RFU C5orf56 (11738089_at) / Fold change /veh C5orf56 (11738089_at) / RFU CYB561 (11721691_x_at) / Fold change /veh CYB561 (11721691_x_at) / RFU ANKRD19P (11752326_a_at) / Fold change /veh ANKRD19P (11752326_a_at) / RFU OR2T12 /// OR2T33 /// OR2T8 (11738714_s_at) / Fold change /veh OR2T12 /// OR2T33 /// OR2T8 (11738714_s_at) / RFU VCAN (11748164_a_at) / Fold change /veh VCAN (11748164_a_at) / RFU JSRP1 (11732532_at) / Fold change /veh JSRP1 (11732532_at) / RFU KRTAP10-11 (11738290_x_at) / Fold change /veh KRTAP10-11 (11738290_x_at) / RFU MYO3A (11730013_a_at) / Fold change /veh MYO3A (11730013_a_at) / RFU EBF3 (11725865_a_at) / Fold change /veh EBF3 (11725865_a_at) / RFU CAMK2N1 (11719241_x_at) / Fold change /veh CAMK2N1 (11719241_x_at) / RFU C5orf56 (11738088_a_at) / Fold change /veh C5orf56 (11738088_a_at) / RFU OLFML3 (11715873_a_at) / Fold change /veh OLFML3 (11715873_a_at) / RFU LOC100653217 /// NTM (11731650_a_at) / Fold change /veh LOC100653217 /// NTM (11731650_a_at) / RFU MAPK11 (11762145_a_at) / Fold change /veh MAPK11 (11762145_a_at) / RFU FIZ1 (11724087_x_at) / Fold change /veh FIZ1 (11724087_x_at) / RFU OASL (11726364_x_at) / Fold change /veh OASL (11726364_x_at) / RFU SOX15 (11748057_x_at) / Fold change /veh SOX15 (11748057_x_at) / RFU CD79A (11719716_a_at) / Fold change /veh CD79A (11719716_a_at) / RFU HIST1H1D (11736915_at) / Fold change /veh HIST1H1D (11736915_at) / RFU CASKIN2 (11723855_a_at) / Fold change /veh CASKIN2 (11723855_a_at) / RFU LOC730098 (11760151_x_at) / Fold change /veh LOC730098 (11760151_x_at) / RFU OR4N2 (11742367_at) / Fold change /veh OR4N2 (11742367_at) / RFU PRRT2 (11749266_a_at) / Fold change /veh PRRT2 (11749266_a_at) / RFU SNX32 (11753110_a_at) / Fold change /veh SNX32 (11753110_a_at) / RFU CDHR5 (11726645_a_at) / Fold change /veh CDHR5 (11726645_a_at) / RFU RCAN1 (11760418_a_at) / Fold change /veh RCAN1 (11760418_a_at) / RFU FAM167A (11723789_a_at) / Fold change /veh FAM167A (11723789_a_at) / RFU FAM26E (11764081_at) / Fold change /veh FAM26E (11764081_at) / RFU ISYNA1 (11749810_s_at) / Fold change /veh ISYNA1 (11749810_s_at) / RFU ACY1 (11761880_at) / Fold change /veh ACY1 (11761880_at) / RFU 11764098_at / Fold change /veh 11764098_at / RFU SAMD14 (11745864_x_at) / Fold change /veh SAMD14 (11745864_x_at) / RFU NPB (11741838_a_at) / Fold change /veh NPB (11741838_a_at) / RFU TMPRSS6 (11731388_a_at) / Fold change /veh TMPRSS6 (11731388_a_at) / RFU KRTAP10-2 (11738614_at) / Fold change /veh KRTAP10-2 (11738614_at) / RFU ARHGAP8 /// PRR5-ARHGAP8 (11727945_x_at) / Fold change /veh ARHGAP8 /// PRR5-ARHGAP8 (11727945_x_at) / RFU KRTAP5-7 /// NADSYN1 (11734609_at) / Fold change /veh KRTAP5-7 /// NADSYN1 (11734609_at) / RFU RASL12 (11751679_a_at) / Fold change /veh RASL12 (11751679_a_at) / RFU CDKN2B (11736163_a_at) / Fold change /veh CDKN2B (11736163_a_at) / RFU PRF1 (11729649_at) / Fold change /veh PRF1 (11729649_at) / RFU, ZNF638 /// ZNF638-IT1 / Fold change vs veh, ZNF638 /// ZNF638-IT1 / RFU, PANK3 / Fold change vs veh, PANK3 / RFU, SH3YL1 / Fold change vs veh, SH3YL1 / RFU, ZEB2 / Fold change vs veh, ZEB2 / RFU, NRIP1 / Fold change vs veh, NRIP1 / RFU, PTTG1IP / Fold change vs veh, PTTG1IP / RFU, CAPN2 / Fold change vs veh, CAPN2 / RFU, MED14 / Fold change vs veh, MED14 / RFU, SNORA58 / Fold change vs veh, SNORA58 / RFU, C1orf63 / Fold change vs veh, C1orf63 / RFU, LRRFIP1 / Fold change vs veh, LRRFIP1 / RFU, NDUFAF7 / Fold change vs veh, NDUFAF7 / RFU, SLC12A2 / Fold change vs veh, SLC12A2 / RFU, IBTK / Fold change vs veh, IBTK / RFU, ESF1 / Fold change vs veh, ESF1 / Fold change vs veh, TMEM50B / RFU, TAOK1 / Fold change vs veh, TAOK1 / RFU, ACBD3 / Fold change vs veh, ACBD3 / RFU, TMA16 / Fold change vs veh, TMA16 / RFU, RWDD3 / Fold change vs veh, RWDD3 / RFU, BCAT1 / Fold change vs veh, BCAT1 / RFU, EDEM3 / Fold change vs veh, EDEM3 / RFU, TMEM33 / Fold change vs veh, TMEM33 / RFU, WDR75 / Fold change vs veh, WDR75 / RFU, AHCTF1 / Fold change vs veh, AHCTF1 / RFU, TFRC / Fold change vs veh, TFRC / RFU, ZDHHC17 / Fold change vs veh, ZDHHC17 / RFU, NOM1 / Fold change vs veh, NOM1 / RFU, ARL8B / Fold change vs veh, ARL8B / RFU, ZBTB11 / Fold change vs veh, ZBTB11 / RFU, TAMM41 / Fold change vs veh, TAMM41 / RFU, KIAA1704 /// LOC100996395 / Fold change vs veh, KIAA1704 /// LOC100996395 / RFU, ING1 / Fold change vs veh, ING1 / RFU, TRMT61B / Fold change vs veh, TRMT61B / RFU, FUBP3 / Fold change vs veh, FUBP3 / RFU, TP53 / Fold change vs veh, TP53 / RFU, TNKS2 / Fold change vs veh, TNKS2 / RFU, ZFP14 / Fold change vs veh, ZFP14 / RFU, ACTR2 / Fold change vs veh, ACTR2 / RFU, PPP3R1 / Fold change vs veh, PPP3R1 / RFU, PIK3R1 / Fold change vs veh, PIK3R1 / RFU, HNRNPA1 / Fold change vs veh, HNRNPA1 / RFU, RNF170 / Fold change vs veh, RNF170 / RFU, ZNF28 / Fold change vs veh, ZNF28 / RFU, RNGTT / Fold change vs veh, RNGTT / RFU, OGT / Fold change vs veh, OGT / RFU, BRD1 / Fold change vs veh, BRD1 / RFU, MARS / Fold change vs veh, MARS / RFU, ZNF655 / Fold change vs veh, ZNF655 / RFU, FAHD1 / Fold change vs veh, FAHD1 / RFU, BDP1 / Fold change vs veh, BDP1 / RFU, LRRCC1 / Fold change vs veh, LRRCC1 / RFU, ARID1A / Fold change vs veh, ARID1A / RFU, ZNF146 / Fold change vs veh, ZNF146 / RFU, ZNF330 / Fold change vs veh, ZNF330 / RFU, GPN3 / Fold change vs veh, GPN3 / RFU, C9orf123 / Fold change vs veh, C9orf123 / RFU, N4BP2L2 / Fold change vs veh, N4BP2L2 / RFU, ARFIP1 / Fold change vs veh, ARFIP1 / RFU, FAM179B / Fold change vs veh, FAM179B / RFU, BCL10 / Fold change vs veh, BCL10 / RFU, UHRF1BP1L / Fold change vs veh, UHRF1BP1L / RFU, BET1 / Fold change vs veh, BET1 / RFU, CNOT2 / Fold change vs veh, CNOT2 / RFU, ZNF268 / Fold change vs veh, ZNF268 / Fold change vs veh, ZNF507 / RFU, DGCR2 / Fold change vs veh, DGCR2 / RFU, WDSUB1 / Fold change vs veh, WDSUB1 / Fold change vs veh, HSP90B1 /// MIR3652 / RFU, ADSS / Fold change vs veh, ADSS / RFU, GK / Fold change vs veh, GK / RFU, ZNF148 / Fold change vs veh, ZNF148 / RFU, TAF9 / Fold change vs veh, TAF9 / RFU, SLC1A5 / Fold change vs veh, SLC1A5 / RFU, SLMO2 / Fold change vs veh, SLMO2 / RFU, ABCC4 / Fold change vs veh, ABCC4 / RFU, LOC101060439 /// RAP1B / Fold change vs veh, LOC101060439 /// RAP1B / RFU, RFX7 / Fold change vs veh, RFX7 / RFU, GTPBP10 / Fold change vs veh, GTPBP10 / RFU, CNEP1R1 / Fold change vs veh, CNEP1R1 / RFU, BIVM-ERCC5 /// ERCC5 / Fold change vs veh, BIVM-ERCC5 /// ERCC5 / RFU, ILF3 / Fold change vs veh, ILF3 / RFU 11762660_at / Fold change /veh 11762660_at / RFU VCAN (11757783_s_at) / Fold change /veh VCAN (11757783_s_at) / RFU DDX43 (11728927_at) / Fold change /veh DDX43 (11728927_at) / RFU KRT8 (11758188_x_at) / Fold change /veh KRT8 (11758188_x_at) / RFU NKD1 (11759106_at) / Fold change /veh NKD1 (11759106_at) / RFU SRD5A1 (11742802_a_at) / Fold change /veh SRD5A1 (11742802_a_at) / RFU TPSAB1 /// TPSB2 (11721975_s_at) / Fold change /veh TPSAB1 /// TPSB2 (11721975_s_at) / RFU GSTM3 (11746129_a_at) / Fold change /veh GSTM3 (11746129_a_at) / RFU IL23R (11737362_x_at) / Fold change /veh IL23R (11737362_x_at) / RFU TMEM51 (11727254_a_at) / Fold change /veh TMEM51 (11727254_a_at) / RFU PIWIL2 (11732686_x_at) / Fold change /veh PIWIL2 (11732686_x_at) / RFU ORM1 (11744905_x_at) / Fold change /veh ORM1 (11744905_x_at) / RFU CCDC152 (11743942_at) / Fold change /veh CCDC152 (11743942_at) / RFU ECM1 (11717891_a_at) / Fold change /veh ECM1 (11717891_a_at) / RFU IL23R (11748794_a_at) / Fold change /veh IL23R (11748794_a_at) / RFU TNFAIP8L3 (11732012_x_at) / Fold change /veh TNFAIP8L3 (11732012_x_at) / RFU MBOAT4 (11741988_at) / Fold change /veh MBOAT4 (11741988_at) / RFU 11764193_at / Fold change /veh 11764193_at / RFU TMEM53 (11763286_at) / Fold change /veh TMEM53 (11763286_at) / RFU MAGEB2 (11727129_at) / Fold change /veh MAGEB2 (11727129_at) / RFU TMEM200A (11744735_a_at) / Fold change /veh TMEM200A (11744735_a_at) / RFU CCDC152 (11751479_a_at) / Fold change /veh CCDC152 (11751479_a_at) / RFU FAM211A (11726209_a_at) / Fold change /veh FAM211A (11726209_a_at) / RFU RGS16 (11746705_a_at) / Fold change /veh RGS16 (11746705_a_at) / RFU VCAN (11755009_s_at) / Fold change /veh VCAN (11755009_s_at) / RFU RHOB (11743442_s_at) / Fold change /veh RHOB (11743442_s_at) / RFU RGS16 (11720943_a_at) / Fold change /veh RGS16 (11720943_a_at) / RFU RGS16 (11720944_at) / Fold change /veh RGS16 (11720944_at) / RFU, VPS4B / Fold change vs veh, VPS4B / RFU, CREB1 / Fold change vs veh, CREB1 / RFU, DNAJC13 / Fold change vs veh, DNAJC13 / RFU, GNAQ / Fold change vs veh, GNAQ / RFU, CDK5R1 / Fold change vs veh, CDK5R1 / RFU, ZRANB3 / Fold change vs veh, ZRANB3 / RFU, CUL4A / Fold change vs veh, CUL4A / RFU, CCNY / Fold change vs veh, CCNY / RFU, UFL1 / Fold change vs veh, UFL1 / RFU, COG3 / Fold change vs veh, COG3 / RFU, DIAPH2 / Fold change vs veh, DIAPH2 / RFU, SKA2 / Fold change vs veh, SKA2 / RFU, AFF3 / Fold change vs veh, AFF3 / RFU, LMF1 / Fold change vs veh, LMF1 / RFU, IPO11 / Fold change vs veh, IPO11 / RFU, DFFB / Fold change vs veh, DFFB / RFU, FOXP1 / Fold change vs veh, FOXP1 / RFU, CARD8 / Fold change vs veh, CARD8 / RFU, STRN3 / Fold change vs veh, STRN3 / RFU, ADK / Fold change vs veh, ADK / RFU, RASSF2 / Fold change vs veh, RASSF2 / RFU, WIPF1 / Fold change vs veh, WIPF1 / RFU, LARP1B / Fold change vs veh, LARP1B / RFU, RASA1 / Fold change vs veh, RASA1 / RFU, RB1 / Fold change vs veh, RB1 / RFU, PPFIA1 / Fold change vs veh, PPFIA1 / RFU, MAT2A / Fold change vs veh, MAT2A / RFU, CCT5 / Fold change vs veh, CCT5 / RFU, WDR92 / Fold change vs veh, WDR92 / RFU, CUX1 / Fold change vs veh, CUX1 / RFU, TTC7A / Fold change vs veh, TTC7A / RFU, TMEM135 / Fold change vs veh, TMEM135 / RFU, DEPTOR / Fold change vs veh, DEPTOR / RFU, CPM / Fold change vs veh, CPM / RFU, DNAJB6 / Fold change vs veh, DNAJB6 / RFU, CACNA2D3 / Fold change vs veh, CACNA2D3 / RFU, DTX4 / Fold change vs veh, DTX4 / RFU, TFCP2 / Fold change vs veh, TFCP2 / RFU, GMCL1 /// GMCL1P1 / Fold change vs veh, GMCL1 /// GMCL1P1 / RFU, AEBP2 / Fold change vs veh, AEBP2 / RFU, SNHG1 /// SNORD22 /// SNORD25 /// SNORD26 /// SNORD27 /// SNORD28 /// SNORD29 /// SNORD31 / Fold change vs veh, SNHG1 /// SNORD22 /// SNORD25 /// SNORD26 /// SNORD27 /// SNORD28 /// SNORD29 /// SNORD31 / Fold change (Aza/veh), C12orf56 (ProbeSet 11735607_a_at) / Fold change (ACY-1035/veh), C12orf56 (ProbeSet 11735607_a_at) / Fold change (Aza/veh), FGFR1OP (ProbeSet 11751329_s_at) / Fold change (ACY-1035/veh), FGFR1OP (ProbeSet 11751329_s_at) / Fold change (Aza/veh), VPS36 (ProbeSet 11739960_a_at) / Fold change (ACY-1035/veh), VPS36 (ProbeSet 11739960_a_at) / RFU SYPL1 (11715823_x_at) / Fold change /veh SYPL1 (11715823_x_at) / RFU IGFBP7 (11715501_s_at) / Fold change /veh IGFBP7 (11715501_s_at) / RFU REEP3 (11722064_at) / Fold change /veh REEP3 (11722064_at) / RFU IGLL1 (11728026_x_at) / Fold change /veh IGLL1 (11728026_x_at): dose or concentration left out as unconfirmed
# Details: ProbeSet 11732433_s_at; LIST B
smiles,measurement,value
Nc1ncn([C@@H]2O[C@H](CO)[C@@H](O)[C@H]2O)c(=O)n1 [azacitidine],"RFU, GK",260.90 RFU
